Results published in patent publication US20250051391A1, “PEPTIDE INHIBITORS AND METHODS FOR INHIBITING PROTEIN AGGREGATION IN NEURONS AND NEURODEGENERATIVE DISEASES” (THE GOVERNING COUNCIL OF THE UNIVERSITY OF TORONTO, priority 2021, published 2025).
Ends that are not written are not given here.

Key:
HEK293 cells [1] = experiment: Lysosome activity (lysosomal flux) assay in HEK293 cells; type: cell-based, human; conditions: HEK293 cells co-expressing A53T a-syn
Procedure: The Lysosome Intracellular Activity Assay kit was purchased from Abcam and used per manufacturer's instructions (ab234622). Briefly, cell medium was replaced with fresh medium containing DMSO, Leupeptin, or Bafilomycin A1 and incubated for 1 h at 37° C. with 5% CO2. Self-quenched substrate was added into each condition and incubated for 1 h (HEK293 cells) or overnight (SNCA triplication fibroblasts) at 37° C. with 5% CO2. After incubation, cells were washed twice in ice-cold 1× assay buffer containing DMSO, Leupeptin, or Bafilomycin A1. For HEK293 cells, cells were re-suspended in PBS containing DMSO or Leupeptin and analyzed by FACS. For fibroblasts, cells were incubated in PBS containing DMSO or Bafilomycin A1 and imaged by confocal microscopy.

HEK293 cells [2] = experiment: LAMP1 and CD63 levels in HEK293 cells co-transfected with A53T a-syn and peptide; type: cell-based, human
Procedure: Infected or transfected cells were scraped from 6-well dishes and lysed with lysis buffer (50 mM Tris-HCl pH7.4, 1% Nonidet P-40, 150 mM NaCl, 1 mM EDTA, 1× protease inhibitor mixture (Sigma)) for 30 min at 4° C. The insoluble pellet was removed following a 10,000 rpm spin for 5 minutes at 4° C. Lysates were analyzed by SDS-PAGE/immunoblot using 4-20% Mini-PROTEAN Tris-glycine gels (Bio-Rad) transferred to PVDF membranes and blocked in 5% milk containing PBS-Tween-20 (0.1%) for 1 h. PVDF membranes were then incubated with specified primary antibodies followed by incubation with horseradish peroxidase-conjugated secondary antibodies (Santa Cruz Biotechnology) and detected using enhanced chemiluminescence (GE Healthcare).
After fixation, cells were permeabilized with 0.2% Triton X-100 for 15 min, washed 3 times with PBS and then incubated with blocking solution (1% BSA, 22.52 mg/mL glycine, 0.1% Tween-20 in PBS) for 1 h. Primary antibodies were diluted in blocking solution and incubated overnight at 4° C. Following three washes with PBS, cells were next incubated with fluorescent secondary antibodies diluted in blocking solution for 1 h at room temperature. Following another 3 PBS washes, nuclei were counterstained with DAPI (ThermoFisher) and then coverslips were mounted on slides using fluorescence mounting medium (DAKO) and sealed using clear nail varnish.

[3] = tested on: rat substantia nigra dopaminergic neurons; experiment: AAV A53T a-syn preclinical rat model of PD; type: in vivo
Procedure: Adult female Sprague-Dawley rats (250-280 g; Envigo) were pair-housed in cages with wood bedding and had access to food and water ad libitum. The animal colony was maintained in a regular 12-h light/dark cycle. All procedures were approved by the University Health Network Animal Care Committee in accordance with guidelines and regulations set by the Canadian Council on Animal Care.
Animals were secured in a stereotactic frame under isoflurane/oxygen anaesthesia and ketoprofen (5 mg/kg) analgesia. The surgical site was shaved and sterilized with iodine/betadine prior to making a 2 cm incision along the midline. The scalp was exposed and a unilateral injection targeting the SN was performed at coordinates AP−5.2 mm, ML−2 mm and DV−7.4 mm with respect to the bregma as a point of reference. For each animal, a total volume of 2 μl of virus was injected at a rate of 0.5 μl/min using a microinjection pump and 10 μl Hamilton syringe with a 26-gauge needle. For A53T groups, 1 μl (low dose) or 1.34 μl (high dose) of AAV1/2-A53T a-syn (5.1×10^12 genomic particles/ml), 0.14 μl of AAV1/2-Pdpep1.3-GFP or scramble1.3-GFP (5.1×10^12 genomic particles/ml) and 0.86 μl or 0.52 μl of sterile PBS was injected; for EV groups, 1 μl (low dose) or 1.34 μl (high dose) of AAV1/2-EV (5.1×10^12 genomic particles/ml) replaced AAV1/2-A53T. For V1S+SV2 groups, 0.58 μl of AAV1/2-V1S (1.1×10^12 genomic particles/ml), 0.58 μl of AAV1/2-SV2 (1.1×10^12 genomic particles/ml), 0.14 μl of AAV1/2-Pdpep1.3-RFP or scramble1.3-RFP (5.1×10^12 genomic particles/ml) and 0.7 μl of sterile PBS was injected; for the YFP groups, 1.16 μl of AAV1/2-YFP (1.1×10^12 genomic particles/ml), 0.14 μl of AAV1/2-Pdpep1.3-RFP or scramble1.3-RFP (5.1×10^12 genomic particles/ml) and 0.7 μl of sterile PBS was injected. At the end of virus injection, the needle remained in place for 5 minutes before gradual removal.
Spontaneous forepaw use was evaluated using the cylinder test 1 day prior to stereotactic AAV injection, at 21 days post-injection and at 41 days post-injection. Following overnight food restriction, individual rats with right paws marked black were placed into a glass cylinder in front of two mirrors and videos recorded. An observer blinded to treatment conditions later scored the videos by recording whether animals used their left or right forepaw to touch the inner glass surface upon rearing. A total of 5 min of video recording was scored and a minimum of 10 total touches was required for data inclusion (61).
Animals were uthanized by transcardial perfusion with heparinised saline under isoflurane/oxygen anaesthesia. Brains were then removed and the ventral part, including the ventral striatum, was snap frozen in liquid dry ice-cooled isopentane. A single 1 mm thick section of the ventral striatum was immediately cut, using a matrix, for high-performance liquid chromatography (HPLC) analysis of biogenic amines. The dorsal part, including the dorsal striatum, STN, and the SN, was immersion-fixed in 4% paraformaldehyde in 0.1M PBS for 2 days and cryo-protected in 30% sucrose in 0.1M PBS solution for another 3 days until the brains sank. For immunofluorescent staining, 40 μm coronal cryosections were then prepared using a sliding microtome (Leica Microsystems Inc.) and 6 series of sections were stored in cryoprotectant (30% glycerol, 30% ethylene glycol, 40% PBS) at −20° C. until use.
Immunofluorescence staining for a-syn, tyrosine hydroxylase and LAMP1 was performed by washing free-floating sections with PBS-T (0.2% Triton X-100) three times for 10 min each at room temperature. Sections were then incubated in blocking solution (1% BSA, 10% normal goat serum in PBS-T) for 1 h. After blocking, sections were incubated with primary antibodies in antibody solution (2% normal goat serum in PBS-T) overnight at RT. Sections were then washed in PBS and incubated with secondary antibodies diluted in antibody solution for 1 h in the dark at room temperature. […]

[4] = higher titer AAV-A53T a-syn, vs Scramble1.3 condition

Sequence: DEEIERQLKALG [PDpep1.3]
- lysosomal flux (HEK293 cells [1]): returned lysosomal flux to baseline
- CD63 levels (MVB marker) (HEK293 cells [2]; HEK293 cells expressing A53T a-syn): return of CD63
- LAMP1 levels (HEK293 cells [2]; HEK293 cells overexpressing A53T a-syn): restored
- forelimb asymmetry in the cylinder test ([3]; higher titer AAV-A53T a-syn, 6 weeks): comparable to controls
- dopaminergic neurodegeneration in the SN (TH+ cell counts) ([3]; higher titer AAV-A53T a-syn, 6 weeks post-injection): mitigated
- striatal levels of DOPAC [3, 4]: restored
- striatal levels of HVA [3, 4]: restored
- striatal levels of dopamine [3, 4]: restored
- LAMP1-positive puncta in the SN ([3]; lower titer AAV-A53T a-syn): restored
- total a-syn positive area in the SN ([3]; lower titer AAV-A53T a-syn, vs Scramble1.3): significant reduction
- a-syn mean fluorescence intensity in cells positive for TH and GFP ([3]; rats, low titer AAV-A53T a-syn, AAV-expressed GFP peptide): 0.335±0.025 RFU
